Reference: PMC7496275, “Pentathiepins: A Novel Class of Glutathione Peroxidase 1 Inhibitors that Induce Oxidative Stress, Loss of Mitochondrial Membrane Potential and Apoptosis in Human Cancer Cells” (Chemmedchem, 2020)
Like-named read-outs stand apart in the source and are kept apart here.

Legend:
[1] = test system: HAP-1 cells; assay: Fluorescence microscopy of mitochondrial membrane potential (JC-1); assay type: cell-based, human; details: positive control, 2.5 μg/L, 1 h
Source text: To determine if 4 influences the mitochondrial membrane potential (MMP), the fluorescent dye JC‐1 was used together with fluorescence microscopy.
Fluorescence microscopy of mitochondrial membrane potential: To detect possible effects of 5 on the mitochondrial membrane potential (MMP) of HAP‐1 cells the fluorescent dye JC‐1 was used.39 JC‐1 accumulates into living cells and is present in monomers in the cytosol. It can also cross the membrane of active mitochondria, were aggregates form. When excited at λ=488 nm, JC‐1 monomers give a green fluorescence while JC‐1 aggregates show red fluorescence. […] Briefly, 10^5 cells in 500 μL medium were seeded out into a chamber of a four‐well chamber‐slide and allowed to attach for 24 h. After incubation with 4 at various concentrations, cells were exposed to the JC‐1 solution for 15 min according to the manufacturer's protocol (BD Bioscience, USA). Cells on the slides were then mounted and examined with a Leica DMi8 fluorescence microscope (Leica, Germany), at λ ex/em=488/512–542 nm for JC‐1 monomers and λ ex/em=488/565–605 nm for agglomerates.

[2] = test system: SISO human cervix cancer cell line; assay: Crystal violet proliferation assay; assay type: cell-based; details: 37 °C, 96 h, n>4, read-out: Inhibition of cell viability GI50 (CI 95 %)
Protocol: GI50 values for 50 % growth inhibition were all in a low micro molar range (Table 1). […] The indole−pentathiepins gave lower GI50 values than the pyrrolo[1,2‐a]quinoxaline derivatives. […] There was also a trend showing that an electron rich substituent in position R^2 increased the antiproliferative effect in SISO cells.
Crystal violet proliferation assay: To measure cell growth inhibition, the crystal violet assay was carried out as previously described.37 Adherent cell lines were seeded out in a 96‐well plate (1000 cells per 200 μL culture medium) and allowed to attach for 24 h. Cells were exposed to nine serial dilutions of compound, added to the medium from 1000‐fold concentrated stock solutions in DMF. For the controls, cells were exposed to 0.1 % DMF alone. After addition of compounds, plates for the detection of the starting point of the proliferation at incubation time zero (t 0) were stopped with glutaraldehyde (see below), washed with Dulbecco's buffer (containing KCl 0.2 g/L, MgSO4 ⋅ 7 H2O 0.1 g/L, Na2HPO4 ⋅ >7 H2O 1.55 g/L, KH2HPO4 0.2 g/L and NaCl 8 g/L in water) and stored at 4 °C until the staining procedure. Treated cells were incubated for 96 h in the incubator, the medium was removed and replaced with 100 μL of 1 % glutaraldehyde in Dulbecco's buffer for 20 min. After washing twice with 150 μL of Dulbecco's buffer, the buffer was removed and replaced with 100 μL of a 0.02 % crystal violet solution dissolved in water for 30 min and subsequently washed in tap water for 15 min. Water was removed and replaced with 100 μL of ethanol (70 % in water) followed by shaking on a 96‐well shaker (MS3 digital, IKA‐Werke, Germany) for 2 h. Optical density was measured with a SpectraMax Plus 383 microtiter plate reader at λ=570 nm (Molecular Devices, USA). The optical density of t 0 plates at the time of treatment were subtracted from optical densities of plates with treated cells after 96 h (T), and the growth inhibition relative to untreated, control cells (C) as described.22 Growth inhibition concentrations at 50 % (GI50) were calculated by determining the inflection point of the sigmoidal log dose‐growth inhibition (%T/C) curves with the GraphPad Prism 6.0 software.

[3] = target: T1, bovine erythrocyte GPx (Bos taurus, UniProt P00435); assay: GPx enzyme activity assay (TBHP/GSH, GR/NADPH coupled); assay type: biochemical; details: 23 °C; n>3; 0.25 mM GSH; read-out: Enzyme inhibition IC50 (CI 95 %)
T1 construct: 180 μL of a bovine erythrocyte GPx1 solution (0.125 U/mL); purchased Sigma Aldrich (Taufkirchen, Germany); host or cells: bovine erythrocytes
T1 sequence (P00435 1-205): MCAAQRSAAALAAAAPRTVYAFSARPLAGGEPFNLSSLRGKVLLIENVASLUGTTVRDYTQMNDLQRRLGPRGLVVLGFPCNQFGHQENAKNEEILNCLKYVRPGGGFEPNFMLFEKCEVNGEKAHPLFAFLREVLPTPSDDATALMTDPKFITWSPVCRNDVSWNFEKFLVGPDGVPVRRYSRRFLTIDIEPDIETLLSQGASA
Protocol: The ability of pentathiepins to inhibit the bovine erythrocyte GPx activity was assayed for by an established enzyme method, which is based on the GPx‐dependent reduction of tert‐butyl hydroperoxide (TBHP) by GSH, leading to the formation of GSSG, which is coupled to the reduction of GSSG back to GSH by glutathione reductase (GR) and the oxidation of NADPH to NADP^+[10] (Figure 1). Inhibition potencies of the compounds were ranked by their IC50 values; that is, concentration of the inhibitor at the inflection point in the sigmoidal log dose‐inhibition curve (Figure 4A), and are summarized for the pentathiepins and mercaptosuccinic acid (MSA) in Table 1.
GPx enzyme activity assay: To evaluate if the various compounds could inhibit GPx1, an enzymatic assay monitoring the activity of the bovine erythrocyte GPx was used as described previously.33 Bovine erythrocyte GPx is highly homologous to the human GPx1 (homology of 87 %)34 but much more affordable. In this assay, GPx reduces tert‐butylhydroperoxide (TBHP) followed by oxidation of glutathione (GSH) to the disulfide (GSSG), which in turn is regenerated to GSH by glutathione reductase (GR) with the consumption of NADPH. To each well of a UV‐transparent 96‐well plate were added 180 μL of a bovine erythrocyte GPx1 solution (0.125 U/mL) and 30 μL of prospective inhibitor in different concentrations diluted in DMF and incubated under shaking for 15 min at room temperature. Then 30 μL of stock solutions of GSH (2.5 mM) and baker's yeast GR plus NADPH (2 U/mL; 2.0 mM) were added. All stock solutions were prepared in potassium phosphate buffer (50 mM, pH 7.4, EDTA 1.1 mM, Triton‐X 0.01 %). The reaction was started by addition of TBHP solution (5 mM), giving final concentrations of 0.075 U/mL bovine erythrocyte GPx, 0.2 U/mL GR, 0.25 mM GSH, 0.2 mM NADPH and prospective inhibitor concentrations between 0.2–100 μM. The reaction was followed by the rate of decreasing absorption of the NADPH at λ=340 nm, measured every 15 s for ca. 20 min. The GPx activity related to untreated control was imported into the GraphPad Prism 6.0 software and the IC50 values were calculated by estimating the inflection point of the sigmoidal log concentration‐activity curves.

[4] = test system: SISO cells; assay: Fluorescence microscopy for lipid peroxidation (BODIPY 581/591); assay type: cell-based, human; details: 100 μM positive control, 24 h
Protocol: In another set of experiments, LPO was visualized by fluorescence microscopy with a dye for lipid peroxides, BODIPY 581/591. […] Together, our results point to apoptosis and not ferroptosis as the mechanism of cell death induced by 4.
Fluorescence microscopy for the detection of lipid peroxidation: SISO cells (250 000 cells) were seeded out in 6‐well plates with an inserted coverslip. Cells were allow to attach for 24 h and then exposed to 25 μM 4 or 100 μM tert‐butyl‐hydroperoxide as a positive control. After 24 h coverslips were washed with PBS and stained with 1 μM BODIPY 581/591 in culture medium for 30 min. Cells on the coverslips were then mounted and examined with a Leica DMi8 fluorescence microscope at λ ex/em=460–500/512–542 nm for the oxidized BODIPY 581/591 and λ ex/em=540–581/592–668 for the reduced form.

[5] = target: T2, bovine GPx1 (Bos taurus, UniProt P00435); assay: Jump-dilution experiments for reversibility of GPx1 inhibition; assay type: biochemical; details: 30 min pre-incubation at 23 °C, 100-fold jump-dilution
T2 construct: 180 μL of a bovine erythrocyte GPx1 solution (0.125 U/mL); purchased Sigma Aldrich (Taufkirchen, Germany); host or cells: bovine erythrocytes
T2 sequence (P00435 1-205): T1 sequence (P00435 1-205)
Protocol: No difference in the inhibitory activity of 4 after jump‐dilution (Figure 4B left, a) was observed compared to expected inhibition at 0.25 μM (Figure 4B left, 0.25 μM), evidence that GPx1 inhibition is reversible. […] This is consistent with findings that MSA can act as an irreversible inhibitor of GPx1.11 In further jump‐dilution experiments, we pre‐incubated both inhibitors with the assay concentrations of either GSH and TBHP (a, d) or GSH only (b, e), with (a–c) and without (d–f) GPx1 for 30 min.
The jump‐dilution experiments were carried out in a 96‐well plates at room temperature. To each well was added 75 μL of a 20 IU mL^−1 GPx stock‐solution followed by the addition of 3 μL of a 2.5 mM solution of 4 in DMF and 30 μL of a 2.5 mM solution of GSH in buffer or 30 μL of a 2.5 mM solution of GSH in buffer and 30 μL of a 5 mM solution of TBHP in water and 300 μL buffer. The plates were shaken for 30 min in the dark, then each well was diluted 100 fold into a second plate prepared for the GPx‐assay. The enzyme activity was immediately measured as described above.

[6] = test system: human GPx; assay: GPx activity assay with human cancer cell lysates (SISO); assay type: biochemical; details: inhibitor at its IC50 for bovine GPx, 0.5 mM GSH
Protocol: To investigate whether the pentathiepins have an inhibitory effect on human GPx, cell lysates of the human cervix cancer cell line SISO, which expresses high levels of GPx1 (see below), were incubated with either 4 or MSA in concentrations of the IC50 value for the inhibitory effect on bovine GPx1.
To measure the inhibition of human GPx activity, the enzyme assay was adapted to use human cancer cell lysates in place of the bovine enzyme. A quantity of 100 μg cellular protein (determined according to the Bradford method) per well was used. Due to the large consumption of cell lysates, just the inhibitory effect on GPx at one concentration of pentathiepin was determined in primary screening. The concentration of GSH was raised to a concentration of 0.5 mM to increase the velocity of the reaction, all other conditions were unchanged. The rates of NADPH oxidation were normalized to the solvent control. […] We used 100 μg protein of lysates and added GSH up to final concentrations between 0.375–3 mM. The rates of the GPx activity were calculated by nonlinear regression and the fitted with the GraphPad Prism 6.0 software: “Enzyme kinetics – Substrate vs. Velocity (Michaelis‐Menten)”.

[7] = test system: SISO cells; assay: Alkaline comet assay; assay type: cell-based, human; details: 15 min at 0 °C
Protocol: (§1) To assess the induction of DNA strand breaks by pentathiepin 4 the Comet Assay was used. The SISO and HAP‐1 cell lines were treated with either 1 % DMF (solvent control), 20 μM H2O2 (positive control) or 25 μM 4 for 15 min at 0 °C. The DNA in the comet head corresponds to still intact genomic DNA while the tail forms due to the damage of nuclear DNA (Figure 9B). […] For HAP‐1 cells a greater reduction of intact DNA from 86 % in control cells to 66 % in pentathiepin‐incubated cells was observed.
(§2) Alkaline comet assay to assess induction of DNA strand breaks: The method was adapted from Olive and Banath.40 The alkaline protocol allows for the detection of single and double strand breaks as well as alkali‐labile sites and is based on the different electrophoretic mobility of intact and damaged nuclear DNA. […] The induction of strand breaks creates free charged ends that drift out and form the characteristic comet tail. The percentage of DNA that is located in the comet head was selected as descriptor, which corresponds to the amount of still intact genomic DNA.
(§3) Briefly, SISO and HAP‐1 cells were harvested by trypsinization and a single cell suspension with 50 000 cells per mL PBS was prepared. Per condition 50 000 cells were incubated on ice (to impair DNA repair) with either the solvent control DMF (1.0 %), 20 μM H2O2 or 25 μM 4 for 15 min. Afterwards, 400 μL of the cell suspension were mixed with 1.2 mL 1 % low melting point agarose (Carl Roth, Germany) at 40 °C and evenly distributed on agarose‐precoated (GeneOn, Germany) glass slides (Thermo Fisher). After 3 min polymerization the slides were horizontally submerged in lysis buffer (1.2 M NaCl (Carl Roth, Germany), 0.1 % N‐Lauryl‐Sarcosinate (Merck), 0.1 M Na‐EDTA, 0.26 M NaOH) and placed at 4 °C overnight. Before electrophoresis at 0.6 V/cm for 25 min the slides were rinsed three times in rinse/electrophoresis buffer (0.002 M Na‐EDTA, 0.03 M NaOH). Afterwards, the slides were neutralized in distilled water and subsequently stained with 250 μL of a 10 μg/mL PI in water solution for 20 min. Finally, the slides were analyzed with a Leica DMi8 fluorescent microscope and LASX software (Leica, Germany) and comets were scored with CometScore 2.0 (Rex A. Hoover, www.rexhoover.com). At least 100 comets were scored per condition.

[8] = test system: HAP-1 cells; assay: Alkaline comet assay; assay type: cell-based, human; details: 20 μM positive control, 15 min at 0 °C
Protocol: as §1, §2, §3

N#CC(C#N)=NNc1ccc(OC(F)(F)F)cc1 [FCCP, carbonyl cyanide‐p‐trifluoromethoxyphenylhydrazone]
mitochondrial membrane potential (MMP) [1]: complete loss of MMP

CCn1c2c(c3cc(Cl)ccc31)SSSSS2 [Compound 7, 9‐Chloro‐6‐ethyl‐6H‐[1,2,3,4,5]pentathiepino[6,7‐b]indole]
GI50 ([2]; Homo sapiens): 1500 nM
IC50 [3]: 400 nM

CCOc1c2c(c3c(C(F)(F)F)nc4cc(C)ccc4n13)SSSSS2 [Compound 3, 12‐Ethoxy‐3‐methyl‐6‐(trifluoromethyl)‐[1,2,3,4,5]pentathiepino[6′,7′ : 3,4]pyrrolo[1,2‐a]quinoxaline]
IC50 [3]: 470 nM

CC(C)(C)OO [tBuOOH, reference compound]
lipid peroxidation (LPO) [4]: showed LPO

O=C(O)CC(S)C(=O)O (stereo not shown) [MSA, mercaptosuccinic acid, reference compound]
reversibility of GPx1 inhibition [5]: some irreversible inhibition had occurred
GI50 [2]: 57100 nM
IC50 [3]: 5860 nM
inhibition of GPx activity [6]: 60%

OO [Compound H2O2, hydrogen peroxide, reference compound]
intact DNA in comet head ([7]; 20 μM positive control): significant decreases of intact DNA
intact DNA in comet head [8]: significant decreases of intact DNA

CCOc1c2c(c3cnc4ccccc4n13)SSSSS2 [Compound 1]
IC50 [3]: 1760 nM

c1ccc(Cn2c3c(c4ccccc42)SSSSS3)cc1 [Compound 8, 6‐Benzyl‐6H‐[1,2,3,4,5]pentathiepino[6,7‐b]indole]
GI50 ([2]; Homo sapiens): 1400 nM
IC50 [3]: 830 nM

Cn1c2c(c3ccccc31)SSSSS2 [Compound 6, 6‐Methyl‐6H‐[1,2,3,4,5]pentathiepino[6,7‐b]indole]
GI50 ([2]; Homo sapiens): 3500 nM
IC50 [3]: 950 nM

CCOc1c2c(c3cnc4cc(C)ccc4n13)SSSSS2 [Compound 2, 12‐Ethoxy‐3‐methyl‐[1,2,3,4,5]pentathiepino[6′,7′ : 3,4]pyrrolo[1,2‐a]quinoxaline]
IC50 [3]: 520 nM

CCOc1c2c(c3c(C(F)(F)F)nc4cc(C)c(C)cc4n13)SSSSS2 [Compound 5, 12‐Ethoxy‐2,3‐dimethyl‐6‐(trifluoromethyl)‐[1,2,3,4,5]pentathiepino[6′,7′ : 3,4]pyrrolo[1,2‐a]quinoxaline]
IC50 [3]: 1860 nM
percentage of undamaged (intact) DNA in comet head ([7]; 25 μM): 80%
